The structures appear in SMILES notation. pIC50: −log10 of the molar value. A value given as a limit tells only on which side of the number the result lay.

One experiment relates to 8XTBD luciferase reporter (YAP) in HEK293T cells. The experiment in a line: YAP Reporter Assay. In kind it is cell-based. The settings on record: Homo sapiens, HEK-293T; HEK293T cells stably transfected with 8XTBD luciferase reporter and pRLTK; 24-hr incubation; top concentration 3 μM; read-out: Firefly Luciferase IC50.
As for `CN(C#N)CCc1nnc(-c2ccccc2Nc2ccc(C(F)(F)F)cc2)o1` [Compound 174, N-methyl-N-(2-(5-(2-((4-(trifluoromethyl)phenyl)amino)phenyl)-1,3,4-oxadiazol-2-yl)ethyl)cyanamide], the pIC50 is above 7.00.
On the same count and under the same terms, under `OC(CCl)c1nnc(-c2ccccc2Nc2ccc(C(F)(F)F)cc2)o1` (centres unmarked) [Compound 81, 2-chloro-1-(5-(2-((4-(trifluoromethyl)phenyl)amino)phenyl)-1,3,4-oxadiazol-2-yl)ethan-1-ol] stands above 7.00; under `COc1nnc(-c2ccccc2Nc2ccc(C(F)(F)F)cc2)o1` [Compound 73, 2-(5-methoxy-1,3,4-oxadiazol-2-yl)-N-(4-(trifluoromethyl)phenyl)aniline], above 7.00.
Same read-out and setting: under `OC(CF)c1nnc(-c2ccccc2Nc2ccc(C(F)(F)F)cc2)o1` (centres unmarked) [Compound 203, 2-fluoro-1-(5-(2-((4-(trifluoromethyl)phenyl)amino)phenyl)-1,3,4-oxadiazol-2-yl)ethan-1-ol] stands above 7.00; under `OCCc1nnc(-c2ccccc2Nc2ccc(C(F)(F)F)cc2)o1` [Compound 2, 2-(5-(2-((4-(trifluoromethyl)phenyl)amino)phenyl)-1,3,4-oxadiazol-2-yl)ethan-1-ol], above 7.00; under `CN(C)C(=O)C1(c2nnc(-c3ccccc3Nc3ccc(C(F)(F)F)cc3)o2)CC1` [Compound 185, N,N-dimethyl-1-(5-(2-((4-(trifluoromethyl)phenyl)amino)phenyl)-1,3,4-oxadiazol-2-yl)cyclopropane-1-carboxamide], 6.00 to 7.00.
Consider `CC(C)(C(N)=O)c1nnc(-c2ccccc2Nc2ccc(C(F)(F)F)cc2)o1` [Compound 162, 2-methyl-2-(5-(2-((4-(trifluoromethyl)phenyl)amino)phenyl)-1,3,4-oxadiazol-2-yl)propanamide], for which the pIC50 was above 7.00.
Still for that read-out and setting: under `CC(C)(C(=O)O)c1nnc(-c2ccccc2Nc2ccc(C(F)(F)F)cc2)o1` [Compound 103, 2-methyl-2-(5-(2-((4-(trifluoromethyl)phenyl)amino)phenyl)-1,3,4-oxadiazol-2-yl)propanoic Acid] stands 6.00 to 7.00.
On to `C[C@@]1(c2nnc(-c3ccccc3Nc3ccc(C(F)(F)F)cc3)o2)CCNC1=O` [Compound 75, (S)-3-methyl-3-(5-(2-((4-(trifluoromethyl)phenyl)amino)phenyl)-1,3,4-oxadiazol-2-yl)pyrrolidin-2-one], for which the negative-log IC50 (pIC50) is above 7.00.
Still for that read-out and setting: then `CCc1nnc(-c2ccccc2Nc2ccc(C(F)(F)F)cc2)o1` [Compound 90, 2-(5-ethyl-1,3,4-oxadiazol-2-yl)-N-(4-(trifluoromethyl)phenyl)aniline], with 6.00 to 7.00; and `FC(F)(F)c1ccc(Nc2ccc(Br)cc2-c2nnc(C3CC3)o2)cc1` [Compound 204, 4-bromo-2-(5-cyclopropyl-1,3,4-oxadiazol-2-yl)-N-(4-(trifluoromethyl)phenyl)aniline], with 6.00 to 7.00; and `CS(=O)(=O)c1nnc(-c2ccccc2Nc2ccc(C(F)(F)F)cc2)o1` [Compound 71, 2-(5-(methylsulfonyl)-1,3,4-oxadiazol-2-yl)-N-(4-(trifluoromethyl)phenyl)aniline], with 6.00 to 7.00.
Still for that read-out and setting: under `N#CCCc1nnc(-c2ccccc2Nc2ccc(C(F)(F)F)cc2)o1` [Compound 126, 3-(5-(2-((4-(trifluoromethyl)phenyl)amino)phenyl)-1,3,4-oxadiazol-2-yl)propanenitrile] stands 6.00 to 7.00; under `CNCC(C)(C)c1nnc(-c2ccccc2Nc2ccc(C(F)(F)F)cc2)o1` [Compound 144, 2-(5-(2-methyl-1-(methylamino)propan-2-yl)-1,3,4-oxadiazol-2-yl)-N-(4-(trifluoromethyl)phenyl)aniline], 6.00 to 7.00; under `CC(=O)OC(CO)c1nnc(-c2ccccc2Nc2ccc(C(F)(F)F)cc2)o1` (centres unmarked) [Compound 202, 2-hydroxy-1-(5-(2-((4-(trifluoromethyl)phenyl)amino)phenyl)-1,3,4-oxadiazol-2-yl)ethyl acetate], above 7.00.
For `OC1(c2nnc(-c3ccccc3Nc3ccc(C(F)(F)F)cc3)o2)CC1` [Compound 44, 1-(5-(2-((4-(trifluoromethyl)phenyl)amino)phenyl)-1,3,4-oxadiazol-2-yl)cyclopropanol], the pIC50 is above 7.00.
`CC(C)(C)OC(=O)NC1(c2nnc(-c3ccccc3Nc3ccc(C(F)(F)F)cc3)o2)CC1` [Compound 57, Tert-Butyl (1-(5-(2-((4-(trifluoromethyl)phenyl)amino)phenyl)-1,3,4-oxadiazol-2-yl)cyclopropyl)carbamate]: the pIC50 was 6.00 to 7.00.
The same measure, in the same setting: then `CSc1nnc(-c2ccccc2Nc2ccc(C(F)(F)F)cc2)o1` [Compound 72, 2-(5-(methylthio)-1,3,4-oxadiazol-2-yl)-N-(4-(trifluoromethyl)phenyl)aniline], with 6.00 to 7.00.
In the case of `CN(CCO)c1nnc(-c2ccccc2Nc2ccc(C(F)(F)F)cc2)o1` [Compound 19, 2-(methyl(5-(2-((4-(trifluoromethyl)phenyl)amino)phenyl)-1,3,4-oxadiazol-2-yl)amino)ethan-1-ol], the negative-log IC50 (pIC50) was 6.00 to 7.00.
The same measure, in the same setting: then `CCOC(=O)c1nnc(-c2ccccc2Nc2ccc(C(F)(F)F)cc2)o1` [Compound 3, ethyl 5-(2-((4-(trifluoromethyl)phenyl)amino)phenyl)-1,3,4-oxadiazole-2-carboxylate], with above 7.00.
Same read-out and setting: then `CC1(c2nnc(-c3ccccc3Nc3ccc(C(F)(F)F)cc3)o2)OCCO1` [Compound 86, 2-(5-(2-methyl-1,3-dioxolan-2-yl)-1,3,4-oxadiazol-2-yl)-N-(4-(trifluoromethyl)phenyl)aniline], with above 7.00.
Same read-out and setting: under `OC1(c2nnc(-c3ccccc3Nc3ccc(C(F)(F)F)cc3)o2)COC1` [Compound 55, 3-(5-(2-((4-(trifluoromethyl)phenyl)amino)phenyl)-1,3,4-oxadiazol-2-yl)oxetan-3-ol] stands above 7.00.
For `FC(F)(F)c1ccc(Nc2ccccc2-c2nnc(C3CCCO3)o2)cc1` (centres unmarked) [Compound 181, 2-(5-(tetrahydrofuran-2-yl)-1,3,4-oxadiazol-2-yl)-N-(4-(trifluoromethyl)phenyl)aniline], the negative logarithm of the IC50 (pIC50) was 6.00 to 7.00.
On the same count and under the same terms, then `CC(c1nnc(-c2ccccc2Nc2ccc(C(F)(F)F)cc2)o1)N(C)C#N` (centres unmarked) [Compound 161, N-methyl-N-(1-(5-(2-((4-(trifluoromethyl)phenyl)amino)phenyl)-1,3,4-oxadiazol-2-yl)ethyl)cyanamide], with above 7.00; and `Cc1ccc(S(=O)(=O)OC(c2nnc(-c3ccccc3Nc3ccc(C(F)(F)F)cc3)o2)C(F)(F)F)cc1` (centres unmarked) [Compound 46, 2,2,2-trifluoro-1-(5-(2-((4-(trifluoromethyl)phenyl)amino)phenyl)-1,3,4-oxadiazol-2-yl)ethyl 4-methylbenzenesulfonate], with 6.00 to 7.00; and `N#CN1CCC(c2nnc(-c3ccccc3Nc3ccc(C(F)(F)F)cc3)o2)C1` (centres unmarked) [Compound 177, 3-(5-(2-((4-(trifluoromethyl)phenyl)amino)phenyl)-1,3,4-oxadiazol-2-yl)pyrrolidine-1-carbonitrile], with 6.00 to 7.00.
Same read-out and setting: then `CCNCCc1nnc(-c2ccccc2Nc2ccc(C(F)(F)F)cc2)o1` [Compound 94, 2-(5-(2-(ethylamino)ethyl)-1,3,4-oxadiazol-2-yl)-N-(4-(trifluoromethyl)phenyl)aniline], with 5.30 to 6.00; and `OCC(O)c1nnc(-c2ccccc2Nc2ccc(C(F)(F)F)cc2)o1` (centres unmarked) [Compound 25, 1-[5-[2-[4-(trifluoromethyl)anilino]phenyl]-1,3,4-oxadiazol-2-yl]ethane-1,2-diol], with above 7.00; and `OC1(c2nnc(-c3ccccc3Nc3ccc(C(F)(F)F)cc3)o2)CCCC1` [Compound 52, 1-(5-(2-((4-(trifluoromethyl)phenyl)amino)phenyl)-1,3,4-oxadiazol-2-yl)cyclo pentanol], with above 7.00.
The same measure, in the same setting: under `CC(O)c1nnc(-c2ccccc2Nc2ccc(C(F)(F)F)cc2)o1` (centres unmarked) [Compound 41, 1-(5-(2-((4-(trifluoromethyl)phenyl)amino)phenyl)-1,3,4-oxadiazol-2-yl)ethanol] stands above 7.00; under `O=c1[nH]c(-c2nnc(-c3ccccc3Nc3ccc(C(F)(F)F)cc3)o2)no1` [Compound 50, 3-[5-[2-[4-(trifluoromethyl)anilino]phenyl]-1,3,4-oxadiazol-2-yl]-4H-1,2,4-oxadiazol-5-one], 5.30 to 6.00; under `CC(C)NCc1nnc(-c2ccccc2Nc2ccc(C(F)(F)F)cc2)o1` [Compound 97, 2-(5-((isopropylamino)methyl)-1,3,4-oxadiazol-2-yl)-N-(4-(trifluoromethyl)phenyl)aniline], 5.30 to 6.00.
Consider `NC(=O)CNc1nnc(-c2ccccc2Nc2ccc(C(F)(F)F)cc2)o1` [Compound 24, 2-((5-(2-((4-(trifluoromethyl)phenyl)amino)phenyl)-1,3,4-oxadiazol-2-yl)amino)acetamide], for which the negative logarithm of the IC50 (pIC50) was 6.00 to 7.00.
Same read-out and setting: then `NCCc1nnc(-c2ccccc2Nc2ccc(C(F)(F)F)cc2)o1` [Compound 104, 2-(5-(2-aminoethyl)-1,3,4-oxadiazol-2-yl)-N-(4-(trifluoromethyl)phenyl)aniline], with 5.30 to 6.00; and `Nc1nnc(-c2ccccc2Nc2ccc(C(F)(F)F)cc2)o1` [Compound 4, 5-(2-((4-(trifluoromethyl)phenyl)amino)phenyl)-1,3,4-oxadiazol-2-amine], with 6.00 to 7.00.

Staying with this experiment, now noted: Homo sapiens, HEK-293T; […]; 24-hr incubation; top concentration 3 μM; read-out: Firefly Luciferase IC50.
As to `OC(CCCl)c1nnc(-c2ccccc2Nc2ccc(C(F)(F)F)cc2)o1` (centres unmarked) [Compound 80, 3-chloro-1-(5-(2-((4-(trifluoromethyl)phenyl)amino)phenyl)-1,3,4-oxadiazol-2-yl)propan-1-ol], the negative-log IC50 (pIC50) was above 7.00.
On the same count and under the same terms, under `OC1(c2nnc(-c3ccccc3Nc3ccc(C(F)(F)F)cc3)o2)CCC1` [Compound 54, 1-(5-(2-((4-(trifluoromethyl)phenyl)amino)phenyl)-1,3,4-oxadiazol-2-yl)cyclo butanol] stands above 7.00.
The same measure, in the same setting: then `CC(=O)NC1(c2nnc(-c3ccccc3Nc3ccc(C(F)(F)F)cc3)o2)CC1` [Compound 59, N-(1-(5-(2-((4-(trifluoromethyl)phenyl)amino)phenyl)-1,3,4-oxadiazol-2-yl)cyclopropyl)acetamide], with 6.00 to 7.00.

The record behind these values is patent US11661403B2, “Oxadiazole compounds” (Vivace Therapeutics, Inc., priority 2018, dated 2023).
